Test results published in patent US11278534B2, “Enantiomers of substituted thiazoles as antiviral compounds” (Innovative Molecules GmbH, priority 2017, dated 2022).
pIC50: −log10 of the molar value. Where two headings read alike, the source gives them in different places.

Legend:
[1] = system: HSV-1; assay: activity selectivity assay, HSV-1 infected Vero cells; type: cell-based
Protocol: (§1) HSV (HSV-1 Walki, HSV-1F, HSV-2 MS, HSV clinical isolates and HSV resistant strains) was cultivated on Vero cells (ATCC CCL-81) under the following conditions: The cells were grown in M199 medium (5% foetal calf serum, 2 mM glutamine, 100 IU/mL penicillin, 100 μg/mL streptomycin) in cell culture bottles at 37° C. and 5% CO2. The cells were splitted twice per week (1:4). For the infection, the medium was removed, the cells were washed with Hank's solution, detached using 0.05% trypsin, 0.02% EDTA and incubacted at a density of 4×10^5 cells/mL under the above-mentioned conditions for 24 h. The medium was removed and the virus solution was added at an m.o.i of <0.05 in a volume of 2 mL per 175 cm^2 surface. The infected cells were incubated at 37° C., 5% CO2 for 1 h and then the medium was made up to a volume of 50 mL per 175 cm^2 bottle. […] The virus was released by freezing (−80° C.) and thwawing (37° C.) the infected cultures twice. Cell debris was removed by centrifugation (300 g, 10 min, 4° C.) and the supernatant was frozen in aliquots at −80° C.
(§2) The virus titre was determined using a plaque assay. To this end, Vero cells were seeded in 24-well plates at a density of 4×10^5 cells per well and, after 24 h of incubation (37° C., 5% CO2) infected with 100 μL of inoculum (dilutions (10^−2 to 10^−12) of the virus stock). 1 h after the infection, the medium was removed and the cells were covered with 1 mL of overlay medium (0.5% methylcellulose, 0.22% sodium bicarbonate, 2 mM glutamine, 100 IU/mL penicillin, 100 μg/mL streptomycin, 5% foetal calf serum in MEM-Eagle medium with Earl's salt) and incubated for 3 d in a cell incubator at (37° C., 5% CO2). The cells were then fixated using 4% formaline for 1 h, washed with water, stained with Giemsa for 30 min and then washed and dried. Using a plaque viewer, the virus titre was determined.
(§3) The antiviral action was determined using a patented (DE10235967 and WO2004/015416) and subsequently published activity selectivity assay (G. Kleymann et al. J. Biomol. Screen. 2004; 9, 578) in 96- or 384-well mictrotitre plates using various cell lines of neuronal, lymphoid and epithelial origin, such as, for example, Vero (african green monkey kidney cells), MEF (murine embryonal fibroblasts), HELF (human embryonal fibroblasts), NT2 (human neuronal cell line) or Jurkat (human lymphoid T-cell line). The relevant experimental details of the above mentioned patent and publication to evaluate the antiviral activity of the invention (disclosed compounds) are described below.
(§4) The effect of the substances on the spreading of the cytopathogenic effect was determined in comparision to the reference compound acyclovir-sodium (Zovirax™), a clinically approved anti-herpes chemotherapeutic.
(§5) The compounds (50 mM stock solution dissolved in DMSO) are examined on microtitre plates (for example 96-well flat bottom cell culture plates) at a final concentration of 250 to 0.5 μM or, in case of potent antiviral compounds, 250 to 0.5 nM in 2 to 4 replications (4 to 2 substances per plate). Also examined are toxic and cytostatic effects or precipitation of the compounds. […]

[2] = system: HSV-2; assay: activity selectivity assay, HSV-2 infected Vero cells; type: cell-based
Protocol: as §1, §2, §3, §4, §5

[3] = molecular target: Human Carboanhydrase II (Homo sapiens, UniProt P00918); assay: carbonic anhydrase activity assay (pH indicator method); type: biochemical; conditions: for carbonic anhydrase inhibition: result in words
[4] = system: HSV-1 ACV resistant; assay: activity selectivity assay, HSV-1 ACV resistant; type: cell-based
Protocol: as §1, §2, §3, §4, §5

Row | Compound | pIC50 ([1]; Human alphaherpesvirus 1) | pIC50 ([2]; Human alphaherpesvirus 2) | IC50 [3] | carbonic anhydrase inhibition [3] | pIC50 ([4]; Human alphaherpesvirus 1) | pIC50 [1] | pIC50 [2] | pIC50 ([4]; HSV-1 ACV resistant)
1 | Cc1nc(N(C)C(=O)Cc2ccc(-c3ccccn3)cc2)sc1S(=N)(=O)C1CC1 (racemic) [Example 7b, N-[5-(Cyclopropylsulfonimidoyl)-4-methyl-thiazol-2-yl]-N-methyl-2-[4-(2-pyridyl)phenyl]acetamide] | 6.40 to 7.00 | 6.00 to 6.60 | > 10 µM | no or significantly reduced carbonic anhydrase inhibition | 6.40 to 7.00 | – | – | –
2 | Cc1nc(N(C)C(=O)Cc2ccc(-c3cc(F)ccc3F)cc2)sc1[S@](=N)(=O)C1CC1 (single isomer, unassigned) [Example 7a(+), (+)-N-(5-(Cyclopropanesulfonimidoyl)-4-methylthiazol-2-yl)-2-(2′,5′-difluoro-[1,1′-biphenyl]-4-yl)-N-methylacetamide] | 6.12 to 6.60 | 5.70 to 6.30 | – | – | 6.12 to 6.60 | – | – | –
3 | Cc1nc(N(C)C(=O)Cc2ccc(-c3cc(F)ccc3F)cc2)sc1[S@@](=N)(=O)C1CC1 (single isomer, unassigned) [Example 7a(−), (−)-N-(5-(Cyclopropanesulfonimidoyl)-4-methylthiazol-2-yl)-2-(2′,5′-difluoro-[1,1′-biphenyl]-4-yl)-N-methylacetamide] | 7.30 to 7.70 | 6.52 to 7.52 | – | – | 7.30 to 7.70 | – | – | –
4 | Cc1nc(N(C)C(=O)Cc2ccc(-c3ccccn3)cc2)sc1[S@](=N)(=O)C1CC1 (single isomer, unassigned) [Example 7b(+), (+)-N-(5-(Cyclopropanesulfonimidoyl)-4-methylthiazol-2-yl)-N-methyl-2-(4-(pyridin-2-yl)phenyl)acetamide] | 5.82 to 6.30 | 5.10 to 5.70 | – | – | 5.82 to 6.30 | – | – | –
5 | Cc1nc(N(C)C(=O)Cc2ccc(-c3ccccn3)cc2)sc1[S@@](=N)(=O)C1CC1 (single isomer, unassigned) [Example 7b(−), (−)-N-(5-(Cyclopropanesulfonimidoyl)-4-methylthiazol-2-yl)-N-methyl-2-(4-(pyridin-2-yl)phenyl)acetamide] | 6.60 to 7.12 | 6.12 to 6.70 | – | – | 6.60 to 7.12 | – | – | –
6 | CN(C(=O)Cc1ccc(-c2cc(F)ccc2F)cc1)c1nc(CO)c([S@@](C)(=N)=O)s1 (single isomer, unassigned) [Example 10a, 2-(2′,5′-Difluoro-[1,1′-biphenyl]-4-yl)-N-(4-(hydroxymethyl)-5-(S-methylsulfonimidoyl)thiazol-2-yl)-N-methylacetamide] | 6.60 to 7.30 | 5.30 to 6.00 | – | – | 6.60 to 7.30 | – | – | –
7 | CN(C(=O)Cc1ccc(-c2cc(F)ccc2F)cc1)c1nc(CO)c([S@](C)(=N)=O)s1 (single isomer, unassigned) [Example 10b, 2-(2′,5′-Difluoro-[1,1′-biphenyl]-4-yl)-N-(4-(hydroxymethyl)-5-(S-methylsulfonimidoyl)thiazol-2-yl)-N-methylacetamide] | 5.30 to 6.00 | 4.60 to 5.30 | – | – | 5.30 to 6.00 | – | – | –
8 | Cc1nc(N(C)C(=O)Cc2ccc(-c3ccccn3)cc2)sc1[S@](C)(=N)=O (stereo in doubt) [Example 7c, N-Methyl-N-[4-methyl-5-(methylsulfonimidoyl)thiazol-2-yl]-2-[4-(2-pyridyl)phenyl]acetamide] | – | – | – | no or significantly reduced carbonic anhydrase inhibition | – | – | – | –
9 | Nc1nc2c(ncn2COCCO)c(=O)[nH]1 [Acyclovir, reference compound] | – | – | – | – | – | 5.52 to 6.30 | 5.52 to 6.30 | < 4.60
10 | Cc1nc(N(C)C(=O)Cc2ccc(-c3cc(F)ccc3F)cc2)sc1S(=N)(=O)C1CC1 (stereo not drawn) [Example 7a, N-[5-(Cyclopropylsulfonimidoyl)-4-methyl-thiazol-2-yl]-2-[4-(2,5-difluorophenyl)phenyl]-N-methyl-acetamide] | 7.00 to 7.52 | 6.30 to 7.30 | – | – | 7.00 to 7.52 | – | – | –
11 | CC(=O)N=[S@](C)(=O)c1sc(N(C)C(=O)Cc2ccc(-c3cc(F)ccc3F)cc2)nc1C [Example 8, (R)-N-(5-(N-Acetyl-S-methylsulfonimidoyl)-4-methylthiazol-2-yl)-2-(2′,5′-difluoro-[1,1′-biphenyl]-4-yl)-N-methylacetamide] | 4.30 to 5.00 | 3.60 to 4.30 | – | – | 4.30 to 5.00 | – | – | –
